Experimental data published in patent publication US11339161B2, “Triazolo pyridines as modulators of gamma-secretase” (Boehringer Ingelheim International GmbH, priority 2017, dated 2022).
Read-outs that look alike come from different tables or passages of the source.

Legend:
FGFR1 = FGFR1 (Homo sapiens, UniProt P11362); assay: Z'-LYTE SelectScreen biochemical kinase assay FGFR1
Description: (§1) Thermo Fisher Scientific SelectScreen™ Biochemical Kinase Profiling Service Z′-LYTE™ Screening Protocol and Assay Conditions Assay Theory
(§2) The […] biochemical assay employs a fluorescence-based, coupled-enzyme format and is based on the differential sensitivity of phosphorylated and non-phosphorylated peptides to proteolytic cleavage. The peptide substrate is labeled with two fluorophores—one at each end—that make up a FRET pair. In the primary reaction, the kinase transfers the gamma-phosphate of ATP to a single tyrosine, serine or threonine residue in a synthetic FRET-peptide. In the secondary reaction, a site-specific protease recognizes and cleaves non-phosphorylated FRET-peptides. Phosphorylation of FRET-peptides suppresses cleavage by the Development Reagent. Cleavage disrupts FRET between the donor (i.e., coumarin) and acceptor (i.e., fluorescein) fluorophores on the FRET-peptide, whereas uncleaved, phosphorylated FRET-peptides maintain FRET. A ratiometric method, which calculates the ratio (Emission Ratio=Coumarin emission (445 nm)/Fluorescein emission (520 nm)) of donor emission to acceptor emission after excitation of the donor fluorophore at 400 nm, is used to quantitate reaction progress, as shown in the equation below. A significant benefit of this ratiometric method for quantitating reaction progress is the elimination of well-to-well variations in FRET-peptide concentration and signal intensities. As a result, the assay yields very high Z′-factor values (>0.7) at a low percent phosphorylation. Both cleaved and uncleaved FRET-peptides contribute to the fluorescence signals and therefore to the Emission Ratio. The extent of phosphorylation of the FRET-peptide can be calculated from the Emission Ratio. The Emission Ratio will remain low if the FRET-peptide is phosphorylated (i.e., no kinase inhibition) and will be high if the FRET-peptide is non-phosphorylated (i.e., kinase inhibition).
(§3) The Test Compounds are screened in 1% DMSO (final) in the well. For 10 point titrations, 3-fold serial dilutions are conducted from the starting concentration of the customer's choosing.
(§4) All Peptide/Kinase Mixtures are diluted to a 2× working concentration in the appropriate Kinase Buffer (see section Kinase Specific Assay Conditions for a complete description).
(§5) All ATP Solutions are diluted to a 4× working concentration in Kinase Buffer (50 mM HEPES pH 7.5, 0.01% BRIJ-35, 10 mM MgCl2, 1 mM EGTA). ATP Km apparent is previously determined using a Z″-LYTE assay.
(§6) The Development Reagent is diluted in Development Buffer (see section Kinase-Specific Assay Conditions—Direct and Cascade for a complete description).
(§7) Bar-coded Corning, low volume NBS, black 384-well plate (Corning Cat. #4514) • 1. 100 nL—100× Test Compound in 100% DMSO • 2. 2.4 μL—Kinase buffer • 3. 5 μL—2× Peptide/Kinase Mixture • 4. 2.5 μL—4×ATP Solution • 5. 30—second plate shake • 6. 60—minute Kinase Reaction incubation at room temperature • 7. 5 μL—Development Reagent Solution • 8. 30—second plate shake • 9. 60—minute Development Reaction incubation at room temperature • 10. Read on fluorescence plate reader and analyze the data Z′-LYTE Assay Controls
(§8) SelectScreen Kinase Profiling Service uses XLfit from IDBS. The dose response curve is curve fit to model number 205 (sigmoidal dose-response model).
The 2×FGFR1/Tyr 04 mixture is prepared in 50 mM HEPES pH 7.5, 0.01% BRIJ-35, 10 mM MgCl2, 4 mM MnCl2, 1 mM EGTA, 2 mM DTT. The final 10 μL Kinase Reaction consists of 0.44-2.45 ng FGFR1 and 2 μM Tyr 04 in 50 mM HEPES pH 7.5, 0.01% BRIJ-35, 10 mM MgCl2, 2 mM MnCl2, 1 mM EGTA, 1 mM DTT. After the 1 hour Kinase Reaction incubation, 5 μL of a 1:64 dilution of Development Reagent B is added.

RPS6KB1 (p70S6K) = RPS6KB1 (p70S6K) (Homo sapiens, UniProt P23443); assay: Z'-LYTE SelectScreen biochemical kinase assay RPS6KB1 (p70S6K)
Description: as §1, §2, §3, §4, §5, §6, §7, §8
(§9) The 2×RPS6 KB1 (p70S6K)/Ser/Thr 07 mixture is prepared in 50 mM HEPES pH 7.5, 0.01% BRIJ-35, 10 mM MgCl2, 1 mM EGTA. The final 10 μL Kinase Reaction consists of 2.87-17.7 ng RPS6 KB1 (p70S6K) and 2 μM Ser/Thr 07 in 50 mM HEPES pH 7.5, 0.01% BRIJ-35, 10 mM MgCl2, 1 mM EGTA. After the 1 hour Kinase Reaction incubation, 5 μL of a 1:45000 dilution of Development Reagent A is added.

CDK5/p35 = CDK5/p35 (Homo sapiens, UniProt Q00535); assay: Z'-LYTE SelectScreen biochemical kinase assay CDK5/p35
Description: as §1, §2, §3, §4, §5, §6, §7, §8
as §9, with “2×CDK5/p35/Ser/Thr 12” for “2×RPS6 KB1 (p70S6K)/Ser/Thr 07”, “0.14-1.3” for “2.87-17.7”, “CDK5/p35” for “RPS6 KB1 (p70S6K)”, “12” for “07”, “1:4096” for “1:45000”

[1] = 10 μmolar compound concentration, ATP at Km app, read-out: FGFR1 inhibition
[2] = read-out: % Inhibition mean FGFR1
[3] = 10 μmolar compound concentration, ATP at Km app, read-out: RPS6KB1 (p70S6K) inhibition
[4] = read-out: % Inhibition mean RPS6KB1 (p70S6K)
[5] = 10 μmolar compound concentration, ATP at Km app, read-out: CDK5/p35 inhibition
[6] = read-out: % Inhibition mean CDK5/p35

Chain of RPS6KB1 (p70S6K) (P23443 whole entry): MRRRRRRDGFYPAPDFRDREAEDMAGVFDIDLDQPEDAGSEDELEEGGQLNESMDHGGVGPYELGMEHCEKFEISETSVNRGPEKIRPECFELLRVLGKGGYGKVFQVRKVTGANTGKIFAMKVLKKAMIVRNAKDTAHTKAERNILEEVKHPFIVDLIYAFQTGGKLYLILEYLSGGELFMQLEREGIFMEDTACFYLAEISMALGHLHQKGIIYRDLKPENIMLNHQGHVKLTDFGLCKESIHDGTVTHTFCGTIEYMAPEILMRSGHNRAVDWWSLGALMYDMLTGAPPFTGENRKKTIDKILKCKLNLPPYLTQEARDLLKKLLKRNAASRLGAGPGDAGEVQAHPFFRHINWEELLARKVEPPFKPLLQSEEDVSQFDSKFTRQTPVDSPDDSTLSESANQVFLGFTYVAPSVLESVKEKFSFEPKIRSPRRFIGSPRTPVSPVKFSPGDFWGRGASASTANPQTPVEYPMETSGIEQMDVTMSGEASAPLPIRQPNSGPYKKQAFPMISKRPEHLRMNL
Chain of FGFR1 (P11362 22-822): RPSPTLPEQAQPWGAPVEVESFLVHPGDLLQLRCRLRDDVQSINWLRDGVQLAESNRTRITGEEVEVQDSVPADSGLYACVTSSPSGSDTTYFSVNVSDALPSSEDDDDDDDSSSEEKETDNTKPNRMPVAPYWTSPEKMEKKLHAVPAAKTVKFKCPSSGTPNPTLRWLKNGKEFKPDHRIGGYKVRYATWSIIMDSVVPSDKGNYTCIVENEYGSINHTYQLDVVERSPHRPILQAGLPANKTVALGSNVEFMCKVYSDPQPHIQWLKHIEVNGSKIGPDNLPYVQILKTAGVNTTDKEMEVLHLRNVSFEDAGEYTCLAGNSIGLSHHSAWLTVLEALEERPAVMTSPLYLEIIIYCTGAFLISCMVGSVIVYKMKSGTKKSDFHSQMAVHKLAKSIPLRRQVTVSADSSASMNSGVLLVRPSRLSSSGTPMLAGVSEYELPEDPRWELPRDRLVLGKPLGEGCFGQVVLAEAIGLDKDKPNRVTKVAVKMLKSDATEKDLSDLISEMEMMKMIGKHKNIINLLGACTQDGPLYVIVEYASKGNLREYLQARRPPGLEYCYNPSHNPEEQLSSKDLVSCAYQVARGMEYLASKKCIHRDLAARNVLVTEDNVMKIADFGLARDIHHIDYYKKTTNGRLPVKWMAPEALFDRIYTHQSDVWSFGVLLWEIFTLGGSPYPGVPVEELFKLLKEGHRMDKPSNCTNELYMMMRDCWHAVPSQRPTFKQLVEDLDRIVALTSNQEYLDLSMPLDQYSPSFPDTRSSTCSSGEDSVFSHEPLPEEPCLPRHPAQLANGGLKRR
Chain of CDK5/p35 (Q00535 whole entry): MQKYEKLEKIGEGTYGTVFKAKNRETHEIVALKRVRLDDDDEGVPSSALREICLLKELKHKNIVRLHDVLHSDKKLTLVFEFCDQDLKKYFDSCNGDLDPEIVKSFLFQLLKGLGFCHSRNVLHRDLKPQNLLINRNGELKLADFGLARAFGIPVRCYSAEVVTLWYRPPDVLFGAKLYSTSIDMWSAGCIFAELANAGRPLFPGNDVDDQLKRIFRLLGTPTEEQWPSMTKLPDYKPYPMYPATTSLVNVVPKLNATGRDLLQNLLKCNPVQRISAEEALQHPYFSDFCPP
Chain of CDK5/p35 (Q15078 whole entry partner): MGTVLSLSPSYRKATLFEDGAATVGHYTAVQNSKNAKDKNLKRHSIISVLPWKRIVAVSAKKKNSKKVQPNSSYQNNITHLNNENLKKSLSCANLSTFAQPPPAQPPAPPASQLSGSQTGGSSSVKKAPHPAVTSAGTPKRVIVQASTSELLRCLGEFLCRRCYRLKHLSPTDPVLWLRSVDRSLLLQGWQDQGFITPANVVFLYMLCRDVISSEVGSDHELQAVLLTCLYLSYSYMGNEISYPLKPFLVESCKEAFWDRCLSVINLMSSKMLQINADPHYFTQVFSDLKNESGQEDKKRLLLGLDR

Compound | inhibition at 10 µM (FGFR1; [1]) | inhibition at 10 µM (FGFR1; [2]) | inhibition at 10 µM (RPS6KB1 (p70S6K); [3]) | inhibition at 10 µM (RPS6KB1 (p70S6K); [4]) | inhibition at 10 µM (CDK5/p35; [5]) | inhibition at 10 µM (CDK5/p35; [6]) | inhibition at 10 µM (FGFR1; read-out: % Inhibition mean) | inhibition at 10 µM (RPS6KB1 (p70S6K); read-out: % Inhibition mean) | inhibition at 10 µM (CDK5/p35; read-out: % Inhibition mean)
CCn1ncc2c1CCC(Nc1nc3c(-c4ccccc4)cccn3n1)C2 (centres unmarked) [Example 57, (1-Ethyl-4,5,6,7-tetrahydro-1H-indazol-5-yl)-(8-phenyl-[1,2,4]triazolo[1,5-a]pyridine-2-yl)-amine] | < 40% | 23% | < 40% | – | < 40% | 26% | – | – | –
CCn1nc(Cl)c2c1CCC(Nc1nc3c(-c4ccc(F)cc4C)cccn3n1)C2 (centres unmarked) [Example 48, (3-Chloro-1-ethyl-4,5,6,7-tetrahydro-1H-indazol-5-yl)-[8-(4-fluoro-2-methyl-phenyl)-[1,2,4]triazolo[1,5-a]pyridine-2-yl]-amine] | < 40% | 18% | < 40% | 15% | < 40% | 38% | – | – | –
CCn1ncc2c1CCC(Nc1nc3c(-c4ccc(OC)nc4)cccn3n1)C2 (centres unmarked) [Example 71, (1-Ethyl-4,5,6,7-tetrahydro-1H-indazol-5-yl)-[8-(6-methoxy-pyridin-3-yl)-[1,2,4]triazolo[1,5-a]pyridine-2-yl]-amine] | < 40% | 19% | < 40% | 23% | 40 to 80% | 53% | – | – | –
CCn1ncc2c1CCC(Nc1nc3c(-c4ccc(F)cc4)cccn3n1)C2 (centres unmarked) [Example 55, (1-Ethyl-4,5,6,7-tetrahydro-1H-indazol-5-yl)-[8-(4-fluoro-phenyl)-[1,2,4]triazolo[1,5-a]pyridine-2-yl]-amine] | < 40% | 12% | < 40% | 11% | < 40% | 13% | – | – | –
CCCCn1ncc2c1CCC(Nc1nc3c(-c4ccc(F)cc4C)cccn3n1)C2 (centres unmarked) [Example 46, [8-(4-fluoro-2-methyl-phenyl)-[1,2,4]triazolo[1,5-a]pyridine-2-yl]-(1-butyl-4,5,6,7-tetrahydro-1H-indazol-5-yl)-amine] | < 40% | 21% | < 40% | 6% | < 40% | 34% | – | – | –
CC1(C)NC(=O)c2ccc(Nc3nc4c(-c5cccc(F)c5)cccn4n3)cc21 [Cpd. 302 in WO09155551, reference compound] | > 80% | – | > 80% | – | > 80% | – | 97% | 86% | 88%
CCCCCn1ncc2c1CCC(Nc1nc3c(-c4ccc(F)cc4C)cccn3n1)C2 (centres unmarked) [Example 47, [8-(4-fluoro-2-methyl-phenyl)-[1,2,4]triazolo[1,5-a]pyridine-2-yl]-(1-pentyl-4,5,6,7-tetrahydro-1H-indazol-5-yl)-amine] | < 40% | 21% | < 40% | 12% | < 40% | 13% | – | – | –
CCn1ncc2c1CCC(Nc1nc3c(-c4cccnc4OC)cccn3n1)C2 (centres unmarked) [Example 69, (1-Ethyl-4,5,6,7-tetrahydro-1H-indazol-5-yl)-[8-(2-methoxy-pyridin-3-yl)-[1,2,4]triazolo[1,5-a]pyridine-2-yl]-amine] | < 40% | 20% | < 40% | 31% | < 40% | 28% | – | – | –
Cc1cc(F)ccc1-c1cccn2nc(NC3CCc4cnn(C)c4C3)nc12 (centres unmarked) [Example 40, [8-(4-Fluoro-2-methyl-phenyl)-[1,2,4]triazolo[1,5-a]pyridine-2-yl]-(1-methyl-4,5,6,7-tetrahydro-1H-indazol-6-yl)-amine] | < 40% | 27% | < 40% | 19% | 40 to 80% | 61% | – | – | –

More lines, now with the values ahead:

inhibition at 10 µM (FGFR1; [1]) | inhibition at 10 µM (FGFR1; [2]) | inhibition at 10 µM (RPS6KB1 (p70S6K); [3]) | inhibition at 10 µM (RPS6KB1 (p70S6K); [4]) | inhibition at 10 µM (CDK5/p35; [5]) | inhibition at 10 µM (CDK5/p35; [6]) | inhibition at 10 µM (FGFR1; read-out: % Inhibition mean) | inhibition at 10 µM (RPS6KB1 (p70S6K); read-out: % Inhibition mean) | inhibition at 10 µM (CDK5/p35; read-out: % Inhibition mean) | Compound
< 40% | 35% | < 40% | 3% | 40 to 80% | 42% | – | – | – | Cc1cc(F)ccc1-c1cccn2nc(Nc3ccc4c(cnn4C)c3)nc12 [Example 9, [8-(4-fluoro-2-methyl-phenyl)-[1,2,4]triazolo[1,5-a]pyridine-2-yl]-(1-methyl-1H-indazol-5-yl)-amine]
< 40% | 18% | < 40% | 3% | 40 to 80% | 47% | – | – | – | CCn1ncc2c1CCC(Nc1nc3c(-c4cccnc4)cccn3n1)C2 (centres unmarked) [Example 63, (1-Ethyl-4,5,6,7-tetrahydro-1H-indazol-5-yl)-(8-pyridin-3-yl-[1,2,4]triazolo[1,5-a]pyridine-2-yl)-amine]
< 40% | 16% | < 40% | 22% | < 40% | 39% | – | – | – | CCn1ncc2c1CC[C@@H](Nc1nc3c(-c4ccc(F)cc4C)cccn3n1)C2 [Example R-42, (R)-(1-Ethyl-4,5,6,7-tetrahydro-1H-indazol-5-yl)-[8-(4-fluoro-2-methyl-phenyl)-[1,2,4]triazolo[1,5-a]pyridine-2-yl]-amine]
< 40% | 20% | < 40% | 1% | 40 to 80% | 52% | – | – | – | CCn1ncc2c1CCC(Nc1nc3c(-c4ccccc4C)cccn3n1)C2 (centres unmarked) [Example 56, (1-Ethyl-4,5,6,7-tetrahydro-1H-indazol-5-yl)-[8-(2-methyl-phenyl)-[1,2,4]triazolo[1,5-a]pyridine-2-yl]-amine]
> 80% | – | > 80% | – | > 80% | – | 99% | 93% | 83% | CC1(C)C(=O)Nc2ccc(Nc3nc4c(-c5cccc(F)c5)cccn4n3)cc21 [Cpd. 263 in WO09155551, reference compound]
> 80% | – | > 80% | – | > 80% | – | 93% | 85% | 90% | Fc1cccc(-c2cccn3nc(Nc4ccc5[nH]cnc5c4)nc23)c1 [Cpd. 293 in WO09155551, reference compound]
